One assay has as its target T1, Human LPA1 (Homo sapiens, UniProt Q92633).
T1 construct: the full-length cDNA for human LPA1 was obtained by PCR of the reverse transcription reaction; expressed in transfected cells
The experiment in a line: LPA1 calcium flux assay. Format: cell-based. The conditions noted are these: CHO cells expressing human LPA1, stimulated with 10 nM LPA; read-out: LPA1 Ca^2+ flux. The procedure:
A 1.1 kb cDNA encoding the human LPA1 receptor was cloned from human lung. Human lung RNA (Clontech Laboratories, Inc. USA) was reverse transcribed using the RETROSCRIPT® kit (Ambion, Inc.) and the full-length cDNA for human LPA1 was obtained by PCR of the reverse transcription reaction. The nucleotide sequence of the cloned human LPA1 was determined by sequencing and confirmed to be identical to the published human LPA1 sequence (An et al., Biochem. Biophys. Res. Commun. 231:619 (1997). The cDNA was cloned into the pcDNA5/FRT expression plasmid and transfected in CHO cells using Lipofectamine 2000 (Invitrogen Corp., USA). Clones stably expressing human LPA1 were selected using hygromycin and identified as cells that show Ca-influx in response to LPA.
Human LPA1 or LPA3 expressing CHO cells are seeded at 20,000-45,000 cells per well in a 96-well poly-D-lysine coated plate one or two days before the assay. Prior to the assay, the cells are washed once with PBS and then cultured in serum-free media overnight. On the day of the assay, a calcium indicator dye (Calcium 4, Molecular Devices) in assay buffer (HBSS with Ca^2+ and Mg^2+ and containing 20 mM Hepes and 0.3% fatty-acid free human serum albumin) is added to each well and incubation continued for 1 hour at 37° C. 10 μl of test compounds in 2.5% DMSO are added to the cells and incubation continued at room temperature for 30 minutes. Cells are the stimulated by the addition of 10 nM LPA and intracellular Ca^2+ measured using the FLEXSTATION® 3 (Molecular Devices). IC50s are determined using Graphpad prism analysis of drug titration curves.

Assay [1] has as its system mouse bleomycin lung fibrosis model. The experiment in a line: Bleomycin-induced lung fibrosis model in mice. Format: in vivo. The source says:
Female C57Bl/6 mice (Harlan, 25-30 g) are housed 4 per cage, given free access to food and water and allowed to acclimate for at least 7 days prior to test initiation. After the habituation phase, mice are lightly anesthetized with isoflurane (5% in 100% O2) and administered with bleomycin sulfate (0.01-5 U/kg, Henry Schein) via intratracheal instillation (Cuzzocrea, S et al., Am. J. Physiol. Lung Cell Mol. Physiol., 292(5):L1095-104 (May 2007) (Epub Jan. 12, 2007). Mice are returned to their cages and monitored daily for the duration of the experiment. Test compound or vehicle is delivered po, ip or sc daily. The route and frequency of dosing is based on previously determined pharmacokinetic properties. All animals are sacrificed using inhaled isoflurane 3, 7, 14, 21 or 28 days after bleomycin instillation. Following sacrifice, mice are intubated with a 20 gauge angiocatheter attached to a 1 ml syringe. Lungs are lavaged with saline to obtain bronchoalveolar lavage fluid (BALF) and then removed and fixed in 10% neutral buffered formalin for subsequent histopathological analysis. BALF is centrifuged for 10 min at 800×g to pellet the cells and the cell supernatant removed and frozen at −80° C. for subsequent protein analysis using the DC protein assay kit (Biorad, Hercules, Calif.) and soluble collagen analysis using Sircol (Biocolor Ltd, UK). BALF is analyzed for concentrations of inflammatory, pro-fibrotic and tissue injury biomarkers including transforming growth factor β1, hyaluronic acid, tissue inhibitor of metalloproteinase-1, matrix matelloproteinase-7, connective tissue growth factor and lactate dehydrogenase activity, using commercially available ELISA. The cell pellet is re-suspended in PBS. Total cell counts are then obtained using a HEMAVET® hematology system (Drew Scientific, Wayne, Pa.) and differential cells counts are determined using Shandon cytospin (Thermo Scientific, Waltham, Mass.). Lung tissue is stained using hematoxylin and eosin (H&E) and trichrome and lung fibrosis is determined by semiquantitative histopathological scoring (Ashcroft T. et al., J. Clin. Path., 41(4):467-470 (1988)) using light microscopy (10× magnification) and quantitative, computer-assisted densitometry of collagen in lung tissue sections using light microscopy. The data are plotted using Graphpad prism and statistical differences between groups determined

The subject of a further assay is nerve-injured mice. The conditions noted are these: pretreatment; cited from earlier work.
Assay [2] has as its system human foetal lung fibroblasts. The conditions noted are these: cited from earlier work.
The next assay concerns UUO mice. The conditions noted are these: compared with LPA1 (−/−) mice; cited from earlier work.
Assay [3] deals with mouse epithelial renal cell line, MCT. The conditions noted are these: co-treatment with LPA, MCT cells; cited from earlier work.
In assay [4] the test system is pancreatic cancer cell lines. As to conditions: cited from earlier work.
Assay [5] relates to highly peritoneal metastatic pancreatic cancer cell line. The conditions noted are these: cited from earlier work.
In a further assay the test system is bone metastasis. As to conditions: in vivo; cited from earlier work.
Another assay addresses T2, LPA3 receptor (Mus musculus, UniProt Q9EQ31).
T2 construct: host or cells: mouse kidney in vivo
T2 sequence (Q9EQ31 1-354): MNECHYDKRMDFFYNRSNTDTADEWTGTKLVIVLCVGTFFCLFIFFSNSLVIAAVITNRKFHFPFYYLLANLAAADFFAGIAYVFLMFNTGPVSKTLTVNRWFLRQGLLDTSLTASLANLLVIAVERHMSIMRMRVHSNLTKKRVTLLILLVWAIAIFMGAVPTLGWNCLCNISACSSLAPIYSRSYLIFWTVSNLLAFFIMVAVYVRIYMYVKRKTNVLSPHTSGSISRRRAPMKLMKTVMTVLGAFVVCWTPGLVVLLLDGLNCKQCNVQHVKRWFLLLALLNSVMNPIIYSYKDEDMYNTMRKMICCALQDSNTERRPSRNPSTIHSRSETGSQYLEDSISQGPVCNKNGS
The conditions noted are these: in the presence of the agonist; cited from earlier work.

Setting [6] is: multiple timepoints following intratracheal bleomycin instillation.

T1 sequence (Q92633 whole entry): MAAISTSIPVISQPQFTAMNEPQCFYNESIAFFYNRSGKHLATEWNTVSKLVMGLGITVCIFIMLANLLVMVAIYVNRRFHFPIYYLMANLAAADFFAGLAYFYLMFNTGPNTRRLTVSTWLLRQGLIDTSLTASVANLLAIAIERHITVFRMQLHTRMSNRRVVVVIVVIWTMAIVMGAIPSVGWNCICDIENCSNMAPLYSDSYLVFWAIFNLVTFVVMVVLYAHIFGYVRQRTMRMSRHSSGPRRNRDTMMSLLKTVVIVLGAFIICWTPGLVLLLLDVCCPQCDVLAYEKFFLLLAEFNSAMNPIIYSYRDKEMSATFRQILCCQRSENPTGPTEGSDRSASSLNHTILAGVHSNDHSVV

For the compound `CC(OC(=O)Nc1ccncc1-c1ccc(-c2ccc(C3(C(=O)O)CC3)cc2)cc1)c1ccccc1Cl` (centres unmarked) [Compound 1-1, 1-(4′-{4-[1-(2-chloro-phenyl)-ethoxycarbonylamino]-pyridin-3-yl}-biphenyl-4-yl)-cyclopropanecarboxylic acid], the IC50 on Human LPA1 is under 300 nM. In assay [1] (acute setting (3 day)), the “BALF MMP-7” value is listed as “reduced”, the “BALF TGFβ1” value is “reduced”, the BALF collagen result is recorded as “reduced” and the BALF hyaluronan result is on record as “reduced”. In assay [1] (acute setting (3 day)), the “BALF inflammatory cell influx” value is “reduced” and the BALF protein entry is “reduced”. Also, in [1] (setting [6]), the fibrosis result is listed as “reduced”, the inflammation entry is reported as “reduced”, the lung injury entry was “reduced” and the vascular leakage entry is on record as “reduced”.

`C[C@@H](N)[C@H]1CC[C@H](C(=O)Nc2ccncc2)CC1` [Compound Y-27632]: the allodynia and hyperalgesia entry in the assay on nerve-injured mice is on record as “completely abolished”.

Consider `Cc1noc(-c2ccc(CSCCC(=O)O)cc2)c1NC(=O)OC(C)c1ccccc1Cl` (centres unmarked) [Ki16425], for which, in [2], the “chemotaxis of human foetal lung fibroblasts induced by BAL from IPF patients” value is “blocked” and the “increased fibroblast chemotactic activity in bronchoalveolar lavage samples of human subjects with IPF” value is “inhibited”. Moreover, the “development of renal fibrosis” value in the assay with UUO mice was “closely resembled the LPA1 (−/−) mice”. Further, the “LPA-induced expression of the profibrotic cytokine CTGF” value in assay [3] is on record as “almost completely suppressed”. In addition, in assay [4], the “in vitro migration in response to LPA and peritoneal fluid (ascites) from pancreatic cancer patients” value is reported as “effectively blocked”. Further, in [5], the “LPA-induced and ascites-induced invasion activity” value is reported as “blocked”. Further, the metastasis to bone result with bone metastasis is given as “inhibit metastasis to bone”.

Regarding `CCCCCCCC/C=C\CCCCCCCC(=O)OC[C@@H](COP(O)(O)=S)OC` [OMPT], the “reduction of severity of injury by blockade of the LPA3 receptor” value at LPA3 receptor was “reversed”.

The values are drawn from patent US9272990B2, “Lysophosphatidic acid receptor antagonists and their use in the treatment fibrosis” (AMIRA PHARMACEUTICALS, INC., priority 2010, dated 2016).
